Laboratory results as given in patent US12491225B2, “Antiviral compositions and methods” (RALCO NUTRITION, INC., priority 2014, dated 2025).

Experiments:
Conditions in all cases: trolox equivalents
ORAC, hydroxyl radical = experiment: ORAC, hydroxyl radical
Source text: (§1) Antiviral EO compositions as described herein can provide antioxidant properties to a subject or host system. Antioxidants can enhance neutrophil function, improve fertility, reduce heat stress related pregnancy losses, reduce frequency of retained placentas, and reduce metritis in dairy cows. Oxygen radical absorbance capacity (ORAC) is the ability of a compound or composition to act as a proton donor and reducing agent for oxygen radicals. In particular, ORAC measures the ability of a compound or composition to act as a reducing agent for peroxyl radicals, hydroxyl radicals, peroxynitrite, superoxide anion, and singlet oxygen, the five most damaging oxygen radicals.
(§2) ORAC capabilities of EO compositions were tested Brunswick Labs, Massachusetts. Table 20 illustrates the antioxidant ability of several embodiments provided herein, as compared to an industry standard antioxidant, Vitamin E. Results are expressed as trolox equivalents (TE/100 g) for each composition: […]

ORAC, peroxyl radical = experiment: ORAC, peroxyl radical
Source text: as §1, §2

ORAC, superoxide anion = experiment: ORAC, superoxide anion
Source text: as §1, §2

ORAC, singlet oxygen = experiment: ORAC, singlet oxygen
Source text: as §1, §2

Total ORAC = experiment: Total ORAC
Source text: as §1, §2

ORAC, peroxynitrite = experiment: ORAC, peroxynitrite
Source text: as §1, §2

Row | Substance | ORAC, Hydroxyl radical (ORAC, hydroxyl radical) [TE/100 g] | ORAC, Peroxyl radical (ORAC, peroxyl radical) [TE/100 g] | ORAC, Superoxide anion (ORAC, superoxide anion) [TE/100 g] | ORAC, Singlet oxygen (ORAC, singlet oxygen) [TE/100 g] | Total ORAC (Total ORAC) [TE/100 g] | ORAC, Peroxynitrite (ORAC, peroxynitrite) [TE/100 g]
1 | Arabinogalactan | 46400 | 20600 | 16600 | 11600 | 96400 | 1200
2 | Vitamin E [Natural Vitamin E] | 0 | 2100 | 0 | 37100 | 39200 | 0
